Experimental data from PubChem BioAssay (NCI).
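Growth conditions: 96-well plates. Treatment: test compound, 48 hours, 5 concentrations. Analysis: linear interpolation between bracketing concentrations; unreached endpoints set to highest concentration. The concentration for full growth arrest is given as TGI.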 Where a SMILES comes first, the peptide text is derived from it. [ ]: non-standard residue; d: D form. The star is where a group is joined. ξ: configuration not given here. ξD = NC(CC(=O)O)C(=O)O; Ac3c = NC1(C(=O)O)CC1; Boc = CC(C)(C)OC(=O)*; OtBu = CC(C)(C)O*

What was measured:
Assay in all cases: inhibition of tumour cell growth, NCI panel, 48 h
786-0 renal = tested on: 786-0 renal
A498 renal = tested on: A498 renal
A549 NSCLC = tested on: A549 NSCLC
ACHN renal = tested on: ACHN renal
BT-549 breast = tested on: BT-549 breast
CAKI-1 renal = tested on: CAKI-1 renal
CCRF-CEM leukemia = tested on: CCRF-CEM leukemia
COLO 205 colon = tested on: COLO 205 colon
DU-145 prostate = tested on: DU-145 prostate
EKVX NSCLC = tested on: EKVX NSCLC
HCC-2998 colon = tested on: HCC-2998 colon
HCT-116 colon = tested on: HCT-116 colon
HCT-15 colon = tested on: HCT-15 colon
HL-60(TB) leukemia = tested on: HL-60(TB) leukemia
HOP-62 NSCLC = tested on: HOP-62 NSCLC
HOP-92 NSCLC = tested on: HOP-92 NSCLC
HS 578T breast = tested on: HS 578T breast
HT29 colon = tested on: HT29 colon
IGROV1 ovarian = tested on: IGROV1 ovarian
K-562 leukemia = tested on: K-562 leukemia
KM12 colon = tested on: KM12 colon
LOX IMVI melanoma = tested on: LOX IMVI melanoma
M14 melanoma = tested on: M14 melanoma
MALME-3M melanoma = tested on: MALME-3M melanoma
MCF7 breast = tested on: MCF7 breast
MDA-MB-231 breast = tested on: MDA-MB-231 breast
MDA-MB-435 = tested on: MDA-MB-435
MDA-N = tested on: MDA-N
MOLT-4 leukemia = tested on: MOLT-4 leukemia
NCI-H226 lung = tested on: NCI-H226 lung
NCI-H23 lung = tested on: NCI-H23 lung
NCI-H460 lung = tested on: NCI-H460 lung
NCI-H522 lung = tested on: NCI-H522 lung
NCI/ADR-RES ovarian = tested on: NCI/ADR-RES ovarian
OVCAR-3 ovarian = tested on: OVCAR-3 ovarian
OVCAR-4 ovarian = tested on: OVCAR-4 ovarian
OVCAR-5 ovarian = tested on: OVCAR-5 ovarian
OVCAR-8 ovarian = tested on: OVCAR-8 ovarian
PC-3 prostate = tested on: PC-3 prostate
RPMI-8226 leukemia = tested on: RPMI-8226 leukemia
RXF 393 renal = tested on: RXF 393 renal
SF-268 CNS = tested on: SF-268 CNS
SF-295 CNS = tested on: SF-295 CNS
SK-MEL-2 melanoma = tested on: SK-MEL-2 melanoma
SK-MEL-28 melanoma = tested on: SK-MEL-28 melanoma
SK-MEL-5 melanoma = tested on: SK-MEL-5 melanoma
SK-OV-3 ovarian = tested on: SK-OV-3 ovarian
SN12C renal = tested on: SN12C renal
SNB-19 CNS = tested on: SNB-19 CNS
SNB-75 CNS = tested on: SNB-75 CNS
SW-620 colon = tested on: SW-620 colon
T-47D breast = tested on: T-47D breast
TK-10 renal = tested on: TK-10 renal
U251 CNS = tested on: U251 CNS
UACC-257 melanoma = tested on: UACC-257 melanoma
UACC-62 melanoma = tested on: UACC-62 melanoma
UO-31 renal = tested on: UO-31 renal
SF-539 CNS = tested on: SF-539 CNS

N#CC12C(=O)N3C(=NC(c4ccccc4)NC3c3ccccc3)C1(C#N)C(c1ccccc1)NC1=C2CCCC1 (stereo not drawn)
TGI (786-0 renal): > 100 µM
TGI (A498 renal): > 100 µM
TGI (A549 NSCLC): > 100 µM
TGI (ACHN renal): > 100 µM
TGI (BT-549 breast): > 100 µM
TGI (CAKI-1 renal): > 100 µM
TGI (CCRF-CEM leukemia): 77.8 µM
TGI (COLO 205 colon): > 100 µM
TGI (DU-145 prostate): > 100 µM
TGI (EKVX NSCLC): > 100 µM
TGI (HCC-2998 colon): > 100 µM
TGI (HCT-116 colon): > 100 µM
TGI (HCT-15 colon): > 100 µM
TGI (HL-60(TB) leukemia): > 100 µM
TGI (HOP-62 NSCLC): > 100 µM
TGI (HOP-92 NSCLC): > 100 µM
TGI (HS 578T breast): > 100 µM
TGI (HT29 colon): > 100 µM
TGI (IGROV1 ovarian): > 100 µM
TGI (K-562 leukemia): > 100 µM
TGI (KM12 colon): > 100 µM
TGI (LOX IMVI melanoma): > 100 µM
TGI (M14 melanoma): > 100 µM
TGI (MALME-3M melanoma): > 100 µM
TGI (MCF7 breast): > 100 µM
TGI (MDA-MB-231 breast): > 100 µM
TGI (MDA-MB-435): > 100 µM
TGI (MDA-N): > 100 µM
TGI (MOLT-4 leukemia): > 100 µM
TGI (NCI-H226 lung): > 100 µM
TGI (NCI-H23 lung): > 100 µM
TGI (NCI-H460 lung): > 100 µM
TGI (NCI-H522 lung): > 100 µM
TGI (NCI/ADR-RES ovarian): > 100 µM
TGI (OVCAR-3 ovarian): > 100 µM
TGI (OVCAR-4 ovarian): > 100 µM
TGI (OVCAR-5 ovarian): > 100 µM
TGI (OVCAR-8 ovarian): > 100 µM
TGI (PC-3 prostate): > 100 µM
TGI (RPMI-8226 leukemia): > 100 µM
TGI (RXF 393 renal): > 100 µM
TGI (SF-268 CNS): > 100 µM
TGI (SF-295 CNS): > 100 µM
TGI (SK-MEL-2 melanoma): > 100 µM
TGI (SK-MEL-28 melanoma): > 100 µM
TGI (SK-MEL-5 melanoma): > 100 µM
TGI (SK-OV-3 ovarian): > 100 µM
TGI (SN12C renal): > 100 µM
TGI (SNB-19 CNS): > 100 µM
TGI (SNB-75 CNS): > 100 µM
TGI (SW-620 colon): > 100 µM
TGI (T-47D breast): > 100 µM
TGI (TK-10 renal): > 100 µM
TGI (U251 CNS): > 100 µM
TGI (UACC-257 melanoma): > 100 µM
TGI (UACC-62 melanoma): > 100 µM
TGI (UO-31 renal): > 100 µM

COC(=O)C1(NC(=O)C(CC(=O)OC(C)(C)C)NC(=O)OC(C)(C)C)CC1 (stereo not drawn) (Boc-[ξD](OtBu)-[Ac3c]-OMe)
TGI (786-0 renal): > 100 µM
TGI (A498 renal): > 100 µM
TGI (A549 NSCLC): > 100 µM
TGI (ACHN renal): > 100 µM
TGI (BT-549 breast): > 100 µM
TGI (CAKI-1 renal): > 100 µM
TGI (CCRF-CEM leukemia): > 100 µM
TGI (COLO 205 colon): > 100 µM
TGI (DU-145 prostate): > 100 µM
TGI (EKVX NSCLC): > 100 µM
TGI (HCC-2998 colon): > 100 µM
TGI (HCT-116 colon): > 100 µM
TGI (HCT-15 colon): > 100 µM
TGI (HOP-62 NSCLC): > 100 µM
TGI (HS 578T breast): > 100 µM
TGI (HT29 colon): > 100 µM
TGI (IGROV1 ovarian): > 100 µM
TGI (K-562 leukemia): > 100 µM
TGI (KM12 colon): > 100 µM
TGI (LOX IMVI melanoma): > 100 µM
TGI (M14 melanoma): > 100 µM
TGI (MALME-3M melanoma): > 100 µM
TGI (MCF7 breast): > 100 µM
TGI (MDA-MB-231 breast): > 100 µM
TGI (MDA-MB-435): > 100 µM
TGI (MDA-N): > 100 µM
TGI (MOLT-4 leukemia): > 100 µM
TGI (NCI-H226 lung): > 100 µM
TGI (NCI-H23 lung): > 100 µM
TGI (NCI-H460 lung): > 100 µM
TGI (NCI-H522 lung): > 100 µM
TGI (NCI/ADR-RES ovarian): > 100 µM
TGI (OVCAR-3 ovarian): > 100 µM
TGI (OVCAR-4 ovarian): > 100 µM
TGI (OVCAR-5 ovarian): > 100 µM
TGI (OVCAR-8 ovarian): > 100 µM
TGI (PC-3 prostate): > 100 µM
TGI (RPMI-8226 leukemia): > 100 µM
TGI (RXF 393 renal): > 100 µM
TGI (SF-268 CNS): > 100 µM
TGI (SF-295 CNS): > 100 µM
TGI (SF-539 CNS): > 100 µM
TGI (SK-MEL-2 melanoma): > 100 µM
TGI (SK-MEL-28 melanoma): > 100 µM
TGI (SK-MEL-5 melanoma): > 100 µM
TGI (SK-OV-3 ovarian): > 100 µM
TGI (SN12C renal): > 100 µM
TGI (SNB-19 CNS): > 100 µM
TGI (SNB-75 CNS): > 100 µM
TGI (SW-620 colon): > 100 µM
TGI (T-47D breast): > 100 µM
TGI (TK-10 renal): > 100 µM
TGI (U251 CNS): > 100 µM
TGI (UACC-257 melanoma): > 100 µM
TGI (UACC-62 melanoma): > 100 µM
TGI (UO-31 renal): > 100 µM
